From ChEMBL document CHEMBL1153125, “Benzylidene cyclopentenediones: First irreversible inhibitors against botulinum neurotoxin A's zinc endopeptidase” (Bioorg Med Chem Lett, 2010)
pIC50: −log10 of the molar value.

Columns and labels:
[1] = molecular target: Botulinum neurotoxin type A (Clostridium botulinum) (UniProt P0DPI0); experiment: Ratio of Kinact to Ki for Clostridium botulinum BoNT/A
[2] = molecular target: Matrix metalloproteinase-9 (Homo sapiens) (UniProt P14780); experiment: Ratio of Kinact to Ki for MMP9
[3] = Selectivity for Clostridium botulinum BoNT/A over MMP9
[4] = molecular target: 72 kDa type IV collagenase (Homo sapiens) (UniProt P08253); experiment: Ratio of Kinact to Ki for MMP2
[5] = molecular target: Botulinum neurotoxin type A (Clostridium botulinum, UniProt P0DPI0); experiment: Inhibition of Clostridium botulinum BoNT/A
Botulinum neurotoxin type A, sequence (P0DPI0 2-448 limits assumed): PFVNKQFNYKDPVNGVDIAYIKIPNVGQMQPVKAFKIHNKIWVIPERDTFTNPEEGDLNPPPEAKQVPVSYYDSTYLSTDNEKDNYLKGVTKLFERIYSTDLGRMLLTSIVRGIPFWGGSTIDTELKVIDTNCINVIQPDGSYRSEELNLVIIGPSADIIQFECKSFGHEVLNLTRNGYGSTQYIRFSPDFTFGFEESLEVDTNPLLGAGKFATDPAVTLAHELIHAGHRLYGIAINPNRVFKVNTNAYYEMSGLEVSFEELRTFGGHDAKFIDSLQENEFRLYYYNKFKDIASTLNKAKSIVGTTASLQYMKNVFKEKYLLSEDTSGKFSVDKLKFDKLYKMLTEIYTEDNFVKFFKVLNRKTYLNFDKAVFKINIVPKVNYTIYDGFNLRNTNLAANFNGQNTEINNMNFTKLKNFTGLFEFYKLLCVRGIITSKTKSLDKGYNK

Botulinum neurotoxin type A (Clostridium botulinum), sequence (P0DPI0 2-448 limits assumed): as above
Matrix metalloproteinase-9 (Homo sapiens), sequence (P14780 whole entry): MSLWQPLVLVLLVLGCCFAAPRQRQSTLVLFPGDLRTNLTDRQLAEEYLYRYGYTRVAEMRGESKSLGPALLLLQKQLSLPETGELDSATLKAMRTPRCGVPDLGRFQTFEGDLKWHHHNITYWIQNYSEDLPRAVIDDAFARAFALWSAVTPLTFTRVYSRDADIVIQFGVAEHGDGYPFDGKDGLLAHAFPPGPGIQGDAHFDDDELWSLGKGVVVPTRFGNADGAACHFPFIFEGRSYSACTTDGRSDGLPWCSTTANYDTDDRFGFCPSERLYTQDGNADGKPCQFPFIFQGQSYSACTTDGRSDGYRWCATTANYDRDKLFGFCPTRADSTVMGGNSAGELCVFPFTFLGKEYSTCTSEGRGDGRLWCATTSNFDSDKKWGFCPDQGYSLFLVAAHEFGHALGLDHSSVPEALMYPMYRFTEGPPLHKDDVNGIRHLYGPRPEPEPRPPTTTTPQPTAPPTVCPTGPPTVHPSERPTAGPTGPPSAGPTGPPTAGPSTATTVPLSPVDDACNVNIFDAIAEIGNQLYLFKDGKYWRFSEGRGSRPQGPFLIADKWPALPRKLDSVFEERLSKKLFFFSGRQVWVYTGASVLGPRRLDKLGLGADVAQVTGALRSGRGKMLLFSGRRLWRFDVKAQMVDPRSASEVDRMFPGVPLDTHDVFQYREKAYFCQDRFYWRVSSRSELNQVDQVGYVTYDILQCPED
72 kDa type IV collagenase (Homo sapiens), sequence (P08253 110-660 limits assumed): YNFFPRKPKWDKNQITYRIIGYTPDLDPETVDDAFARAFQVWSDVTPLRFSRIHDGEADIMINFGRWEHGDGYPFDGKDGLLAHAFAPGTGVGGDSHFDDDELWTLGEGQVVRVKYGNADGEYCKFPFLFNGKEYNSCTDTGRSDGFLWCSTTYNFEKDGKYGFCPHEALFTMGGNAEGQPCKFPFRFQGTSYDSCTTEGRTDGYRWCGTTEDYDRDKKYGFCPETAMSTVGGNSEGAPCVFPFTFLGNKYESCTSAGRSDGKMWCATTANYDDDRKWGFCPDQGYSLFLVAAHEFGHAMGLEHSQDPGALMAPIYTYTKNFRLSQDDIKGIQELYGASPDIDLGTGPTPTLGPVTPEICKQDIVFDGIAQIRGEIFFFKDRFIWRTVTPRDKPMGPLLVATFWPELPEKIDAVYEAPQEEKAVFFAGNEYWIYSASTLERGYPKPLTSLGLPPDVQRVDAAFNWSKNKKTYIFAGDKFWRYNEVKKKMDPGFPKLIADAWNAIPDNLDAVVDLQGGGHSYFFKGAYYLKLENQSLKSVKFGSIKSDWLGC

Question: For `CCCCCc1ccc(C=C2C(=O)C=CC2=O)cc1`, which Ratio [1] is on record?
Answer: Its Ratio is 80.

Question: For `Cc1cc(Cl)ccc1C=C1C(=O)C=CC1=O`, which Ratio [2] is on record?
Answer: Its Ratio is 58.

Question: And the Selectivity ratio [3]?
Answer: Its Selectivity ratio is 9.

Question: And the Ratio [1]?
Answer: The Ratio was 580.

Question: For `O=C1C=CC(=O)C1=Cc1ccc(Cl)cc1Cl`, which Ratio [2] is on record?
Answer: The Ratio was 61.

Question: And the Selectivity ratio [3]?
Answer: The Selectivity ratio was 9.

Question: What about the Ratio [4] of the same compound?
Answer: The Ratio was < 33.

Question: And the Ratio [1]?
Answer: The Ratio was 520.

Question: With `Cc1cc(Cl)ccc1/C=C/C(=O)NO` as the compound, how does the pIC50 [5] read?
Answer: Its pIC50 is 6.10.

Question: With `CCCCCc1ccc(C(=O)NO)cc1` as the compound, how does the pIC50 [5] read?
Answer: The pIC50 was 4.39.
